{"source": "patent US11684614B2", "about": "“Formulations of hydroxypyridonate actinide/lanthanide decorporation agents” (priority 2017, dated 2023)", "test": "Repeated-treatment efficacy for removing an intravenous dose of 238Pu (excretion, tissue retention, clinical observations), female and male arms;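 as to % Recovered Dose - ART: ART is abdominal tissue remainder with GI tract reproductive organs spleen bladder fat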", "format": "in vivo, Swiss-Webster mice", "procedure": "The objective of this study was to characterize the efficacy of 3,4,3-L1(1,2-HOPO) at enhancing elimination from an internal plutonium burden in female and male Swiss-Webster mice administered a soluble citrate complex of ^238Pu and treated multiple times, starting at 24 hours after the exposure. Efficacy was evaluated by comparing the tissue contents, urinary and fecal excretions of ^238Pu in treated animals versus untreated animals.\nThe medical countermeasure 3,4,3-L1(1,2-HOPO) was administered parenterally (ip) or orally (po) via consecutive injections or gavages (six daily or twelve twice daily) starting at 24 hours post contamination at the following four selected doses: 30 μmol/kg ip, 150 μmol/kg po, 300 μmol/kg po, and 600 μmol/kg po (equivalent to respective approximate human doses range of […], using the accepted conversion system of mouse doses into human equivalent doses—HED—based on body surface area). Oral doses also included the permeability enhancer selected during formulation development work.\n• Challenge isotope: ^238Pu • Challenge dose: 25 nCi (i.e., approximately 0.8 μCi/kg) • Route of contamination: Intravenous (iv) tail-vein • Route of treatment: Intraperitoneal Injection (ip) or Oral (po) • Frequency of treatment: Multiple (once- or twice-daily for 6 days) doses, starting 24 hr postcontamination • Treatment dose calculation: Dose calculations (mg/kg or μmol/kg) for the decorporation agent were based on the individual body weight measured after contamination. • Study Duration: 11 days, in-life\nc. […] Test article and control dose formulations were prepared within 1 day of dose administration, by weighing out the appropriate amount of test article, dispersing in vehicle. For ip solutions, the test article was used alone, while for oral suspensions, a mixture of test article and excipient (90:10, w:w) was used. The pH was adjusted to 7.0-7.4 for ip administration and 5.0-5.5 for oral administration with sterile NaOH. Dose formulations were prepared at room temperature and filter-sterilized. • Storage: 2-8° C.; refrigerated; protected from light. • Characterization: The concentration of each test article formulation was verified by high-performance liquid chromatography-mass spectrometry. • Test Article Handling: Test, reference, and control article formulations were handled with the use of eye protection, gloves, and a protective laboratory coat. • Correct Dose Assurance: The test article was weighed with calibrated balances. The administration of each dose formulation was properly documented, and the amount administered to each animal recorded.\ne. Experimental Procedures (In-Life Evaluations and Euthanasia) • Contamination: Single administration by intravenous (iv) tail-vein injection (0.2 mL injection volume) under isoflurane anesthesia. Three standard 0.2 mL injections were performed into polyethylene bottles and pre-loaded with aliquots of concentrated nitric acid on each injection day. Six female and six male mice were culled for necropsy 1 hr post-contamination and were used as standards. A11 standards were processed and counted together with the final samples to allow verification of the contamination dose. • Dose Administration: Single administration by intraperitoneal injection (ip) or oral gavage (po) under isoflurane anesthesia. • Mortality/Morbidity: Assessed at least once daily. • Clinical Observations: Recorded once daily (4 hr post-dose on day of treatment), or more often as clinical signs warranted. […]", "key": {"[1]": {"settings": "female animals, D-7 necropsy, individual animals, listed as 3,4,3-LI(1,2-HOPO)"}, "[2]": {"settings": "female animals, D-11 necropsy, individual animals, listed as 3,4,3-LI(1,2-HOPO)"}, "[3]": {"settings": "male animals, Day 7 necropsy, animal group B, listed as 3,4,3-LI(1,2-HOPO)"}}, "note": "“And” between values parts separate entries of the source, which are not always exact repeats. Equal entries are not always repeated.", "data": [{"smiles": "O=C(NCCCN(CCCCN(CCCNC(=O)c1cccc(=O)n1O)C(=O)c1cccc(=O)n1O)C(=O)c1cccc(=O)n1O)c1cccc(=O)n1O", "note": "[3,4,3-L1(1,2-HOPO)]", "values": [{"measurement": "% Recovered Dose-Female Animals-Urine per Day-Day 11 Necropsy", "setting": "animal group M, day 11, female mice, listed as 3,4,3-LI(1,2-HOPO)", "result": "0.44% and 0.82% and 0.63% and 0.58% and 0.53% and 1.12% and 0.91% and 0.93%"}, {"measurement": "238Pu excretion path", "setting": "female and male mice", "result": "predominantly through feces"}, {"measurement": "adverse effect", "setting": "female and male mice, parenteral or oral, all dose levels", "result": "No adverse effect"}, {"measurement": "% Recovered Dose - Kidney", "setting": "female animals, D-7 necropsy, individual animals (ID = group letter + number), dose/regimen of group not given, listed as 3,4,3-LI(1,2-HOPO)", "result": "0.27% (2×) and 0.15% and 0.24% (2×) and 0.17% and 0.31% and 0.14% and 0.09% and 0.28% (2×) and 0.43% and 0.12% and 0.21% and 0.22% (2×)"}, {"measurement": "% Recovered Dose - ART", "setting": "[1]", "result": "1.01% and 1.36% and 1.12% (2×) and 1.30% and 1.21% and 1.29% and 1.37% and 1.20% and 0.98% (2×) and 1.39% and 1.24% (2×) and 1.16% and 1.59%"}, {"measurement": "% Recovered Dose - Combined Body", "setting": "[1]", "result": "34.79% and 38.75% and 40.32% and 37.43% and 36.37% and 39.78% and 31.50% and 26.07% and 36.12% and 35.98% and 41.72% and 33.15% and 35.58% and 25.26% and 33.24% and 36.43%"}, {"measurement": "% Recovered Dose - Combined Excreta", "setting": "[1]", "result": "65.21% and 61.25% and 59.68% and 62.57% and 63.63% and 60.22% and 68.50% and 73.93% and 63.88% and 64.02% and 58.28% and 66.85% and 64.42% and 74.74% and 66.76% and 63.57%"}, {"measurement": "% Recovered Dose - Liver", "setting": "[1]", "result": "8.04% and 11.52% and 14.05% and 17.71% and 5.50% and 9.28% and 7.15% and 5.47% and 15.03% and 5.40% and 15.12% and 5.35% and 15.19% and 6.77% and 11.56% and 16.40%"}, {"measurement": "% Recovered Dose - SKEL", "setting": "[1]", "result": "23.83% and 24.03% and 23.40% and 16.40% and 28.04% and 26.98% and 21.55% and 17.57% and 18.05% and 27.21% and 23.15% and 24.86% and 17.48% and 15.65% and 19.07% and 16.03%"}, {"measurement": "% Recovered Dose - SOFT", "setting": "[1]", "result": "1.63% (2×) and 1.69% and 1.50% and 1.75% and 1.54% and 2.00% and 1.36% and 1.57% and 1.61% and 2.12% and 1.58% and 1.55% and 1.38% and 1.41% and 2.13%"}, {"measurement": "% Recovered Dose - Total Feces", "setting": "[1]", "result": "37.37% and 25.66% and 41.03% and 28.59% and 40.61% and 26.74% and 36.25% and 39.09% and 25.39% and 34.86% and 39.63% and 37.46% and 28.91% and 37.33% and 32.34% and 24.62%"}, {"measurement": "% Recovered Dose - Total Urine", "setting": "[1]", "result": "27.84% and 35.60% and 18.65% (2×) and 33.98% and 23.02% and 33.48% and 32.25% and 34.83% and 38.49% and 29.16% and 29.39% and 35.51% and 37.41% and 34.43% and 38.95%"}, {"measurement": "% Recovered Dose - Combined Body", "setting": "[2]", "result": "17.98% and 75.50% and 20.85% and 19.27% and 21.23% and 20.95% and 24.13% and 19.99% and 25.13% and 24.87% and 27.98% and 26.74% and 30.36% and 31.29% and 29.30% and 29.18% and 27.61% and 23.71% and 21.16% and 25.90% and 28.33% and 29.52% and 30.59% and 27.44%"}, {"measurement": "% Recovered Dose - Combined Excreta", "setting": "[2]", "result": "82.02% and 24.50% and 79.15% and 80.73% and 78.77% and 79.05% and 75.87% and 80.01% and 74.87% and 75.13% and 72.02% and 73.26% and 69.64% and 68.71% and 70.70% and 70.82% and 72.39% and 76.29% and 78.84% and 74.10% and 71.67% and 70.48% and 69.41% and 72.56%"}, {"measurement": "% Recovered Dose - GI Tract", "setting": "[2]", "result": "0.65% and 1.84% and 0.77% and 0.48% and 0.55% and 0.52% and 0.62% and 0.54% and 0.97% and 0.80% (2×) and 1.10% and 0.99% and 0.95% and 1.50% and 0.96% and 0.87% and 0.70% and 0.91% and 0.68% and 0.50% and 1.19% and 0.81% and 1.03%"}, {"measurement": "% Recovered Dose - Kidney", "setting": "[2]", "result": "0.09% and 1.35% and 0.13% (2×) and 0.08% (2×) and 0.18% and 0.14% (4×) and 0.05% and 0.11% (2×) and 0.25% and 0.16% (2×) and 0.26% and 0.12% and 0.20% (2×) and 0.15% and 0.10% (2×)"}, {"measurement": "% Recovered Dose - Liver", "setting": "[2]", "result": "4.74% and 36.77% and 4.16% and 1.79% and 1.96% and 2.48% and 3.25% and 1.16% and 8.54% and 3.78% and 4.98% and 7.97% and 5.01% and 6.46% and 4.53% and 6.86% and 4.50% and 3.03% and 5.22% and 3.96% and 5.73% and 8.43% and 7.92% and 6.01%"}, {"measurement": "% Recovered Dose - Soft Tissue", "setting": "[2]", "result": "1.29% (2×) and 3.31% and 0.99% and 1.94% (2×) and 1.49% and 1.62% and 1.17% and 1.66% and 1.55% and 2.66% and 2.10% and 2.26% and 1.73% and 2.18% and 2.32% and 2.21% and 2.05% and 2.16% and 2.59% and 1.56% and 1.48% and 2.11%"}, {"measurement": "% Recovered Dose - Total Bone", "setting": "[2]", "result": "11.21% and 32.22% and 14.80% and 15.63% and 16.61% and 16.38% and 18.50% and 17.05% and 13.83% and 18.64% and 18.99% and 15.53% and 21.88% and 21.46% and 21.52% and 18.92% and 19.89% and 17.79% and 12.72% and 18.57% and 20.43% and 17.82% and 20.28% and 18.12%"}, {"measurement": "% Recovered Dose - Total Feces", "setting": "[2]", "result": "38.27% and 13.76% and 41.57% and 45.81% and 39.56% and 45.73% and 37.01% and 44.68% and 36.23% and 51.20% and 30.57% and 33.16% and 39.74% and 37.31% and 37.09% and 35.70% and 28.28% and 37.36% and 36.24% and 36.31% and 36.22% and 32.51% and 34.94% and 35.74%"}, {"measurement": "% Recovered Dose - Total Urine", "setting": "[2]", "result": "43.75% and 10.74% and 37.58% and 34.92% and 39.21% and 33.32% and 38.85% and 35.33% and 38.64% and 23.93% and 41.45% and 40.10% and 29.89% and 31.40% and 33.61% and 35.12% and 44.11% and 38.93% and 42.60% and 37.79% and 35.45% and 37.97% and 34.47% and 36.82%"}, {"measurement": "% Recovered Dose - Feces per Day - Day 2", "setting": "female animals, Day 7 necropsy, Day 2, listed as 3,4,3-LI(1,2-HOPO)", "result": "13.36% and 8.81% and 9.40%"}, {"measurement": "% Recovered Dose - Feces per Day - Day 3", "setting": "female animals, Day 7 necropsy, Day 3, listed as 3,4,3-LI(1,2-HOPO)", "result": "5.58% and 1.92% and 3.39%"}, {"measurement": "% Recovered Dose - Feces per Day - Day 4", "setting": "female animals, Day 7 necropsy, Day 4, listed as 3,4,3-LI(1,2-HOPO)", "result": "3.61% and 2.93% and 2.98%"}, {"measurement": "% Recovered Dose - Feces per Day - Day 5", "setting": "female animals, Day 7 necropsy, Day 5, listed as 3,4,3-LI(1,2-HOPO)", "result": "2.85% and 2.91% and 2.16%"}, {"measurement": "% Recovered Dose - Feces per Day - Day 6", "setting": "female animals, Day 7 necropsy, Day 6, listed as 3,4,3-LI(1,2-HOPO)", "result": "1.63% and 2.50% and 1.90%"}, {"measurement": "% Recovered Dose - Feces per Day - Day 7", "setting": "female animals, Day 7 necropsy, Day 7, listed as 3,4,3-LI(1,2-HOPO)", "result": "1.39% and 1.95% and 1.75%"}, {"measurement": "increase in total 238Pu excretion compared to the control groups", "setting": "female, 6 daily oral treatments, 600 μmol/kg, 11 days post-contamination", "result": "up to 143%"}, {"measurement": "tissue content of 238Pu compared to saline control group", "setting": "female, all analyzed tissues, all dosing regimens", "result": "large reductions"}, {"measurement": "full body content of 238Pu compared to saline control groups", "setting": "female, all treated groups", "result": "significant reductions"}, {"measurement": "decrease in body burden compared to the control groups", "setting": "female, once-daily oral 600 μmol/kg, 11 days post-contamination", "result": "up to 45%"}, {"measurement": "decorporation efficacy relative to parenteral DTPA", "setting": "female, oral once-daily 300 μmol/kg", "result": "equivalent to that of parenteral treatment with DTPA"}, {"measurement": "238Pu elimination enhancement", "setting": "female, oral twice-daily 150 and 300 μmol/kg or once-daily 300 and 600 μmol/kg, 7 days post-contamination", "result": "significant"}, {"measurement": "% Recovered Dose Urine per Day, Day 1", "setting": "[3]", "result": "20.65% and 15.62% and 19.53% and 17.05%"}, {"measurement": "% Recovered Dose Urine per Day, Day 2", "setting": "[3]", "result": "2.02% and 2.81% and 2.18% and 1.96%"}]}]}
